Patent US20180296523A1, “USE OF POLYMETHOXYLATED FLAVONES TO AMELIORATE CIRCADIAN RHYTHM DISORDERS” (THE BOARD OF REGENTS OF THE UNIVERSITY OF TEXAS SY, priority 2017, published 2018)

Assays:
[1] = test system: SCN explants from PER2::Luc WT reporter mice; experiment: PER2::Luc reporter rhythms in SCN explants; type: cell-based, mouse; details: listed as NOB
Procedure: The chemical screen for circadian clock modulators was conducted at the Chemical Genomics Core facility at the UTHSC-H. The in-house chemical library screened consists of compounds from NIH Clinical Collection, NCI collection and Microsource Spectrum Collection. The screening was conducted largely based on the protocol previously described (Chen et al., 2012). Briefly, 15,000 immortalized fibroblast cells from Clock^Δ19/+ heterozygous mice expressing the PER2::Luc bioluminescence reporter were plated into each well of 96-well plates, and incubated for 3-4 d to allow growth to confluency. Cells were then incubated with 5 μM forskolin for 1-2 h followed by the addition of chemical compounds to the plates with robotic arms (Beckman), and then subjected to continuous monitoring over several days in a temperature-controlled EnVision microplate reader (Perkin Elmer). Data analysis was carried out by using the MultiCycle software (Actimetrics) for measurement of period, phase, and amplitude. […] NOB and a structurally related analog Naringin (NAR) were re-ordered from commercial sources including Sigma and GenDEPOT and dose response validation was conducted using PER2::LucSV reporter fibroblast cells which express stronger bioluminescence signals and thus allow precise measurements of circadian clock effects of compounds (Chen et al., 2012). […]

[2] = test system: regular chow-fed mice; experiment: Metabolic homeostasis in regular chow-fed mice; type: in vivo, mouse; details: regular chow (RC) feeding, 9-week treatment
Procedure: Weekly body weight was monitored in different treatment mice for 10 weeks. Body mass composition was measured at the end of experiments using a minispec mqNMR spectrometer (Bruker Optics, Texas) (Garcia et al., 2013). A control group of mice were fed with regular chow diet (Purina 5001) in parallel with the two treatment groups in HFD. For db/db and db/db Clock^Δ19/Δ19 mice, male mice at 6-8 weeks of age were group-housed (2-3/cage) and maintained on regular chow diets. Mice were subjected to oral gavage with either DMSO or NOB as described above.
Glucose tolerance test (GTT) and insulin tolerance test (ITT) were performed largely as described (He et al., 2015; Jeong et al., 2015). Briefly, after overnight and 5-hr fasting, GTT and ITT were conducted at ZT2 and ZT8 respectively. Glucose levels were measured from tail blood before and 15, 30, 60, or 120 min after injection of either 1 g/kg glucose or 0.75 U/kg insulin (Sigma) at ZT2 and ZT8 respectively by using the ONETOUCH UltraMini blood glucose monitoring system (LifeScan). Serum insulin levels were measured with the Rat/Mouse Insulin Elisa kit (Millipore) according to the manufacturer's instructions. The plasma samples were collected at ZT2 as described above for lipid assays.

[3] = test system: WT and Clock^Δ19/Δ19 mice; experiment: Circadian locomotor (wheel-running) activity; type: in vivo, mouse
Excerpt: RC-fed WT, HFD-fed WT and Clock^[…]/[…] mice with NOB or Vehicle treatment were used for circadian locomotor activity experiments. Briefly, mice were first maintained for at least 2 weeks in a 12 hr:12 hr light:dark (LD) cycle, then released into the constant darkness, free-running condition. The mice were then maintained in constant darkness for another 2 weeks. Wheel-running data was downloaded as VitalView data files and analyzed with the […] and Actogram J program (Schmid et al., 2011; Zheng et al., 1999).

[4] = Pharmacokinetic study in mice (LC-MS/MS); type: in vivo; details: mouse, oral gavage 200 mg/kg; for exposure in plasma/serum, brain and liver: single dose, 200 mg/kg
Procedure: For diet-induced obesity, male mice at 6 weeks of age were fed with HFD (D12492, Research Diets) until the end of the experimental protocol. The mice were treated with either vehicle (DMSO) or NOB (200 mg/kg body weight) via oral gavage every other day, in the time window of ZT8-10, throughout the experimental period. An every-other-day dosing regimen was chosen at the indicated level based on several reasons. First, previous in vivo studies have used similar overall amounts for mouse treatment (100-125 mg/kg/day) (Lee et al., 2013; Li et al., 2006). The oral gavage procedure was done in late afternoon (ZT8-10) prior to the start of their active phase, reasoning that this may coincide with the time-window adopted by previous studies. Second, daily dosing was not chosen to avoid entraining the experimental mice with the procedure per se as an artificial zeitgeber. Furthermore, pilot pharmacokinetic (PK) assays were done under a single-dose condition (Fig. S7). […] Therefore, it was reasoned that every-other day dosing helps avoid any incomplete daily clearance over the chronic experimental period (10 weeks). NOB was administered orally at ZT8 at a dose of 200 mg/kg in 0.25% sodium Carboxy Methyl Cellulose (CMC) suspension. Three mice per time point were sacrificed at 0.0, 1.0, 2.0, 4.0, 8.0 and 24.0 hr after oral gavage. NOB in plasma, brain and liver was determined by LC-MS/MS (API 4000: EQ-RS-MS-006).

[5] = test system: Bmal1 promoter with RORα/γ knockdown; experiment: Bmal1 promoter-driven luciferase reporter in U2OS cells; type: cell-based

COc1ccc(-c2cc(=O)c3c(OC)c(OC)c(OC)c(OC)c3o2)cc1OC [nobiletin]
reporter rhythms in SCN explants [1]: did not enhance reporter rhythms
metabolic homeostasis [2]: did not show significantly beneficial effects
metabolic homeostasis ([2]; listed as NOB): did not effect metabolic homeostasis
wheel-running activity levels ([3]; HFD-fed Clock^Δ19/Δ19 mice): no significant difference in activity levels
wheel-running activity levels ([3]; HFD-fed WT mice, vs control treatment): greatly increased wheel-running activity levels
wheel-running activity and periodicity ([3]; RC-fed WT C57/6J mice): normal wheel-running activity and periodicity
NOB level 8 hr after single-dose administration [4]: undetectable
exposure in plasma/serum, brain and liver [4]: significant brain and systemic exposure
exposure in plasma/serum, brain and liver ([4]; listed as NOB): significant exposure in serum, brain and particularly liver
induction of Bmal1 reporter after knockdown of RORα/γ by siRNAs [5]: abrogated the nobiletin-mediated induction
